Laboratory results published in patent US12180187B2, “1-phenyl-5-azinylpyrazolyl-3-oxyalkyl acids and their use for controlling unwanted plant growth” (BAYER AKTIENGESELLSCHAFT, priority 2019, dated 2024).
“And” between values parts separate entries of the source, which are not always exact repeats. Equal entries are not always repeated.

Experiments:
LOLRI = experiment: Pre-emergence action against LOLRI, 1280 g/ha; type: in vivo, Lolium rigidum; conditions: visual scoring after about 3 weeks vs untreated controls, 100% = plants have died, 0% = like control plants; for pest or weed control at 1280 g/ha: Lolium rigidum, 504 h
In short: (§1)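 Activity was scored visually as percent versus untreated controls about 3 weeks after treatment (100% = dead plants, 0% = control-like). Compounds, formulated as wettable powders or emulsion concentrates, were sprayed onto the covering soil over freshly sown seeds in sandy loam, with 0.5% additive and 600 L/ha water.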

HORMU = experiment: Post-emergence action at 320 g/ha against HORMU; type: in vivo, Hordeum murinum; conditions: visual rating about 3 weeks after treatment vs untreated controls
In short: (§2)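 Greenhouse pot plants in sandy loam received a foliar spray of WP- or EC-formulated compound at the one-leaf stage. Percent activity against untreated controls was assessed visually around three weeks later.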

AVEFA = experiment: Post-emergence action at 320 g/ha against AVEFA; type: in vivo; conditions: visual rating about 3 weeks after treatment vs untreated controls; for pest or weed control at 320 g/ha: Avena fatua, 504 h
In short: as §2

ECHCG = experiment: Post-emergence action at 320 g/ha against ECHCG; type: in vivo, Echinochloa crus-galli; conditions: dosage 320 g/ha, visual rating about 3 weeks after treatment vs untreated controls (100% = plants died)
In short: as §2

STEME = experiment: Post-emergence action against STEME, 1.28 kg/ha; type: in vivo, Stellaria media; conditions: dosage 1280 g/ha, visual rating about 3 weeks after treatment vs untreated controls (100% = plants died)
In short: (§3)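 Visual rating against untreated plants about 3 weeks after spraying gives % activity, where 0% means like controls and 100% means plants died. Plants were treated post-emergence at the one-leaf stage with compound formulated as wettable powder or emulsion concentrate, applied at 600 L water/ha plus 0.5% additive.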

DIGSA [1] = experiment: Pre-emergence action against DIGSA, 1280 g/ha; type: in vivo, Digitaria sanguinalis; conditions: visual scoring after about 3 weeks vs untreated controls, 100% = plants have died, 0% = like control plants
In short: as §1

VERPE = experiment: Post-emergence action against VERPE, 1.28 kg/ha; type: in vivo, Veronica persica; conditions: dosage 1280 g/ha, visual rating about 3 weeks after treatment vs untreated controls (100% = plants died); for pest or weed control at 1280 g/ha: Veronica persica, 504 h
In short: as §3

AMARE [2] = experiment: Post-emergence action at 320 g/ha against AMARE; type: in vivo, Amaranthus retroflexus; conditions: visual rating about 3 weeks after treatment vs untreated controls; for pest or weed control at 320 g/ha: Amaranthus retroflexus, 504 h
In short: as §2

SETVI = experiment: Post-emergence action against SETVI, 1.28 kg/ha; type: in vivo, Setaria viridis; conditions: dosage 1280 g/ha, visual rating about 3 weeks after treatment vs untreated controls
In short: as §3

DIGSA [3] = experiment: Post-emergence action at 320 g/ha against DIGSA; type: in vivo, Digitaria sanguinalis; conditions: dosage 320 g/ha, visual rating about 3 weeks after treatment vs untreated controls (100% = plants died); for pest or weed control at 320 g/ha: Digitaria sanguinalis, 504 h
In short: as §2

ABUTH = experiment: Pre-emergence action against ABUTH, 1280 g/ha; type: in vivo, Abutilon theophrasti; conditions: scored visually after about 3 weeks vs untreated controls (100% = plants have died)
In short: as §1

POLCO = experiment: Post-emergence action at 320 g/ha against POLCO; type: in vivo, Fallopia convolvulus (Polygonum convolvulus); conditions: visual rating about 3 weeks after treatment vs untreated controls; for pest or weed control at 320 g/ha: Fallopia convolvulus, 504 h
In short: as §2

AMARE [4] = experiment: Post-emergence action against AMARE, 1.28 kg/ha; type: in vivo, Amaranthus retroflexus; conditions: dosage 1280 g/ha, visual rating about 3 weeks after treatment vs untreated controls (100% = plants died)
In short: as §3

KCHSC [5] = experiment: Post-emergence action against KCHSC, 1.28 kg/ha; type: in vivo, Bassia scoparia; conditions: dosage 1280 g/ha, visual rating about 3 weeks after treatment vs untreated controls (100% = plants died)
In short: as §3

KCHSC [6] = experiment: Pre-emergence action against KCHSC, 1280 g/ha; type: in vivo, Bassia scoparia; conditions: scored visually after about 3 weeks vs untreated controls (100% = plants have died)
In short: as §1

| SMILES | pest or weed control at 1280 g/ha (LOLRI) | Post-emergence action against HORMU in % (HORMU) | pest or weed control at 320 g/ha (AVEFA) | Post-emergence action at 320 g/ha against ECHCG in % (ECHCG) | Post-emergence action against STEME (STEME) | Pre-emergence action against DIGSA (DIGSA [1]) | pest or weed control at 1280 g/ha (VERPE) | pest or weed control at 320 g/ha (AMARE [2]) | Post-emergence action against SETVI (SETVI) | pest or weed control at 320 g/ha (DIGSA [3]) | Pre-emergence action against ABUTH (ABUTH) | pest or weed control at 320 g/ha (POLCO) | Post-emergence action against AMARE (AMARE [4]) | Post-emergence action against KCHSC (KCHSC [5]) | Pre-emergence action against LOLRI (LOLRI) | Post-emergence action against AVEFA in % (AVEFA) | Post-emergence action against VERPE (VERPE) | Post-emergence action against AMARE in % (AMARE [2]) | Post-emergence action at 320 g/ha against DIGSA in % (DIGSA [3]) | Post-emergence action against POLCO in % (POLCO) | other results |
| --- | --- | --- | --- | --- | --- | --- | --- | --- | --- | --- | --- | --- | --- | --- | --- | --- | --- | --- | --- | --- | --- |
| O=C(O)COc1nn(-c2ccccc2F)c(-c2cncnc2)c1Br [VI-007, {[4-Bromo-1-(2-fluorophenyl)-5-(pyrimidin-5-yl)-1H-pyrazol-3-yl]oxy}acetic Acid] | 100% | 90% | 100% | 80% | 100% | 100% | 90% | 80% | 90% | 80% | 90% | 80% |  |  |  |  |  |  |  |  |  |
| O=C(O)COc1nn(-c2ccccc2F)c(-c2ccc(F)nc2)c1Br [VII-003, {[4-Bromo-1-(2-fluorophenyl)-5-(6-fluoropyridin-3-yl)-1H-pyrazol-3-yl]oxy}acetic acid] | 100% | 90% | 80% | 90% | 100% | 100% | 90% | 90% | 90% | 90% |  | 90% | 100% |  |  |  |  |  |  |  |  |
| CCOC(=O)COc1nn(-c2ccccc2F)c(-c2ccc(F)nc2)c1Br [VII-012, Ethyl {[4-bromo-1-(2-fluorophenyl)-5-(6-fluoropyridin-3-yl)-1H-pyrazol-3-yl]oxy}acetate] | 100% | 90% | 90% | 90% | 100% | 100% | 90% | 90% | 100% and 90% | 80% |  | 90% | 100% and 90% | 90% |  |  |  |  |  |  |  |
| CCOC(=O)C(C)Oc1nn(-c2ccccc2F)c(-c2ccc(F)nc2)c1Br (stereo not shown) [VII-019] |  | 100% |  | 90% | 100% | 100% |  |  | 90% |  | 90% |  | 90% | 90% | 100% | 100% | 90% | 80% | 90% | 90% | Pre-emergence action against KCHSC (KCHSC [6]): 100% |
| COC(=O)C(C)Oc1nn(-c2ccccc2)c(-c2cccnc2)c1Cl (stereo not shown) [VII-032] |  | 90% |  | 90% | 100% | 90% |  |  | 90% |  |  |  | 100% |  | 100% | 100% | 100% | 90% | 90% | 80% |  |
